Results on 3 compounds are retold here after patent US20230242964A1, “BIODEGRADABLE BIOCHEMICAL SENSOR FOR DETERMINING THE PRESENCE AND/OR THE LEVEL OF PESTICIDES OR ENDOCRINE DISRUPTORS: METHOD AND COMPOSITION” (priority 2018, published 2023).

Test [1] deals with E. coli EPSP Synthase (Escherichia coli, UniProt P0A6D3). Briefly: EPSP synthase network #2B plugged to phosphate detection.
Text: The entry of the network is composed of: the EPSP synthase that uses the phospho-enol pyruvate (PEP) and the 3-phospho Shikimate to produce 5-O-(1-caroxyvinyl)-3-phosphoshikimate and inorganic phosphate.
Then 2 different networks have been tested: • One that converts the inorganic phosphate (Pi): Pi is combined with Inosine in the presence of the purine nucleoside phosphorylase to give Hypoxanthine. The Hypoxantine lead to Xanthine and H2O2 in the presence of Xanthine Oxidase. The Horseradish peroxidase uses the H2O2 to convert the O-dianisidine or the Amplex Red and give a colorimetric or fluorimetric signal detectable.
First, the network has been tested in liquid buffer without vesicle or gel. […] Reaction was followed for 1 hour at 25° C. by registering the absorbance at 450 nm on a spectrophotometer. • One that converts the 5-O-(1-caroxyvinyl)-3-phosphoshikimate produced by the EPSP synthase: 5-O-(1-caroxyvinyl)-3-phosphoshikimate is metabolized by the Chorismate Synthase to give chorismate. This Chorismate is then transformed in pyruvate by the chorismate Lyase. Finaly the pyruvate is used by the Lactate dehydrogenase in the presence of NADH to give lactate and NAD+. The NADH consumption is followed by the change of fluorescence emission at 445 nm (Excitation at 340 nm)—or change of absorbance at 340 nm on a spectrophotometer. • 3.
The reaction was followed by the change of fluorescence on a fluorimeter (Excitation at 530 nm/Emission at 590 nm) or by the change of absorbance at 450 nm on a spectrophotometer. It allowed us to determine the activity of the EPSP synthase toward Phosphoenol Pyruvate (PEP).
Test [2] concerns BliGO SCF4 mutant. The note with it: cited from earlier work.
For test [3], the target named is T1, Bacillus subtilis H244K Glycine/Glyphosate oxidase (Bacillus subtilis, UniProt O31616, H244K).
T1 construct: purchased Creative enzyme NATE-1674
As to the kind of experiment: Glycine biochemical network #3, Amplex red/HRP fluorescence and colorimetric readout. The note with it: glyphosate at 100 μM, Tris buffer 50 mM pH 7,5. The source says: It allowed us to detect the glycine.

E. coli EPSP Synthase, sequence (P0A6D3 whole entry): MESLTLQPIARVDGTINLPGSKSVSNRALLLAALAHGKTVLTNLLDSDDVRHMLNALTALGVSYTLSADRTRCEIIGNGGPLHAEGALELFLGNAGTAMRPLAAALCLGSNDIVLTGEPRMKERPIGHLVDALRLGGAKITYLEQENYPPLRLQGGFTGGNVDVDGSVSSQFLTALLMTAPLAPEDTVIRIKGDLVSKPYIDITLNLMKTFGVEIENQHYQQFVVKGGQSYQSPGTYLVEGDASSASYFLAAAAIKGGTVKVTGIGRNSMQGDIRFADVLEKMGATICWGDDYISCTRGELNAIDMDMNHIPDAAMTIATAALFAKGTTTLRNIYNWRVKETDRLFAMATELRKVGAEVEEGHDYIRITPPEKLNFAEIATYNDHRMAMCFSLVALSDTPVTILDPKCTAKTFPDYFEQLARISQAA
T1 sequence (O31616 whole entry H244K): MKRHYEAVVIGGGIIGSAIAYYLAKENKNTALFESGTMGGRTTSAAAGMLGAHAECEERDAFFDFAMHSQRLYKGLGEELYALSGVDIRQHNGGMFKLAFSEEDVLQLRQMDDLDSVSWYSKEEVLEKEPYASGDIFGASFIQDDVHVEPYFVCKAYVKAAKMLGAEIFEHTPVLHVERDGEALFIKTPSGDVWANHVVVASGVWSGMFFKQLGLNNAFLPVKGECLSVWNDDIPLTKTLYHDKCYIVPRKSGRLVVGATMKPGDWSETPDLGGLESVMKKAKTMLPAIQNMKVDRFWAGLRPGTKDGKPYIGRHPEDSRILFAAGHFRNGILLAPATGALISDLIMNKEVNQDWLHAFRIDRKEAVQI

For `C=C(OP(=O)(O)O)C(=O)O` [PEP, phosphoenolpyruvate], in test [1] (50 mM Hepes pH 7, 25° C.), the “EPSP affinity for PEP” value came out at 14 µM and the “Vmax of EPSP synthase toward PEP” value worked out at 1.026e-08 mol/L/s.
For the compound `NCC(=O)O` [glycine], the “decrease of activity to glycine compared to WT” value in test [2] (BliGO SCF4 mutant vs WT) is reported as 113 fold.
Take `O=C(O)CNCP(=O)(O)O` [glyphosate]: the “detection by network #3” value in test [3] is recorded as “absence of detection”. Further, in test [2] (BliGO SCF4 mutant vs WT), the “increase of affinity toward glyphosate compared to WT” value was 8 fold. In addition, in test [2] (BliGO SCF4 mutant), the affinity toward glyphosate is listed as 1.58 mM. For the same compound, the “effect on the EPSP synthase” value in test [1] (glyphosate 0 to 2 mM, concentration dependent) is on record as “inhibitory effect”.
